Ends that are not written are not given here.
What follows are compounds tested on HEK 293 cells transfected with MREII VIPII. Conditions: wild-type HEK 293 cells or HEK 293 cells expressing the porcine CGRP receptor; endogenous receptors or direct activation of adenylyl cyclase; in the presence of IBMX.
Type: cell-based, Human
Experimental: Day 1: HEK293 cells at a density of 4.5x10^6/T-75 flask in Earl's Minimum Essential Medium (EMEM) supplemented with 10% fetal bovine serum and 2 mM glutamine were incubated overnight in a humidified tissue culture incubator at 37°C, 5% CO2.
Day 2: MREII VIPII DNA (7.8 µg) was mixed with 780 µl of serum free EMEM to produce Solution A. Lipofectamine (23.1 µl; Gibco-BRL) was mixed with 780 µl of serum EMEM to produce Solution B. Solutions A and B were then mixed gently and incubate at room temperature for 15-45 minutes. Cells were then rinsed with 15 ml of serum free EMEM and 6.25 ml of serum free EMEM was added. Combined solutions (A + B) were overlayed and the flask was placed in a tissue culture incubator for 5 hours. Media was replaced with 15 ml of EMEM/10% serum/ 2 mM glutamine and stored in the tissue culture incubator.
Day 3: Ninety-six well tissue culture plates were treated with Matrigel (50 µl/well diluted 1/50 with phosphate buffered saline (PBS); Collaborative Biomedical Products) for > 1 hour. Matrigel solution was then removed and the plate was transfected with HEK 293 cells at a cell density of 2.6 x 10^4/well in 100 µl of supplemented EMEM. […] Cells were then incubated for 6 hours in a humidified tissue culture incubator at 37°C, 5% CO2. Media was removed and cells were washed with 50 µl of PBS.
Cell lysis solution (50 µl; Promega) supplemented with AEBSF (0.24 mg/ml), pepstatin, leupeptin, and aprotinin (5µg/ml each), and DNAse I (50 µg/ml) was added and extracts were frozen. Ten microliters of thawed extract were added to assay plates along with 50 µl of reconstituted luciferase assay reagent (Promega) using a luminometer autoinjector (Dynex MLX) and samples were read. Luciferase activity is expressed as a fold enhancement over the basal luciferase activity expressed in cells that have not been challenged with agonist, IBMX, TPA, or forskolin.

Question: With `C[N+](C)(C)CCOC(N)=O` [carbachol] as the compound, how does the Luciferase stimulation read?
Answer: Its Luciferase stimulation is “did not stimulate luciferase induction”.

Question: Which Luciferase stimulation does the source give for `Nc1ncnc2c1ncn2[C@@H]1O[C@H](CO)[C@@H](O)[C@H]1O` [adenosine] here?
Answer: The Luciferase stimulation was “did not stimulate luciferase induction”.

Question: How did the Luciferase stimulation turn out when “calcitonin (CGNLSTCMLGTYTQDFNKFHTFPQTAIGVGAP; not fully specified (C-terminus, bridges); ends and bridges not checked; UniProt P01258 85-116, looked up)” was run?
Answer: Its Luciferase stimulation is “Luciferase stimulation was observed”.

Question: `CCCCC[C@H](O)/C=C/[C@H]1[C@H](O)CC(=O)[C@@H]1C/C=C\CCCC(=O)O` [PGE2] was tested. Which Luciferase stimulation did it give?
Answer: The Luciferase stimulation was “Luciferase stimulation was observed”.

Question: How did the Luciferase stimulation turn out when “endothelin (CSCSSLMDKECVYFCHLDIIW; not fully specified (bridges); ends and bridges not checked; UniProt P05305 53-73, looked up)” was run?
Answer: The Luciferase stimulation was “did not stimulate luciferase induction”.

Question: How did the Luciferase stimulation turn out when “VIP (HSDAVFTDNYTRLRKQMAVKKYLNSILN; not fully specified (C-terminus); ends and bridges not checked; UniProt P01282 125-152, looked up)” was run?
Answer: The Luciferase stimulation was “Luciferase stimulation was observed”.

Question: How did the Luciferase stimulation turn out when `Nc1ncnc2c1ncn2[C@@H]1O[C@H](COP(=O)(O)OP(=O)(O)OP(=O)(O)O)[C@@H](O)[C@H]1O` [ATP] was run?
Answer: Its Luciferase stimulation is “did not stimulate luciferase induction”.

From patent EP0863214A2, “Reporter gene construct for measuring G protein coupled receptor activation” (SMITHKLINE BEECHAM CORPORATION, priority 1997, dated 1998)
